Values after ≈ are worked out from the molar mass of the structure shown.
How the values were obtained:
Escherichia coli [1] = experiment: Antimicrobial activity against Escherichia coli BicA expressing blaTEM-1, blaCTX-M-15 and qepA2 gene by disk diffusion method
Escherichia coli [2] = experiment: Antimicrobial activity against azide-resistant Escherichia coli J53 harboring pCTX-M plasmid carrying blaCTX-M-15 gene by disk diffusion method; type: functional
Escherichia coli [3] = experiment: Antimicrobial activity against azide-resistant Escherichia coli J53 harboring pCTX-M carrying blaCTX-M-15 and pQep plasmid carrying qepA2 gene by disk diffusion method; type: functional
Escherichia coli [4] = experiment: Antimicrobial activity against azide-resistant Escherichia coli J53 by disk diffusion method; type: functional
Escherichia coli [5] = experiment: Antimicrobial activity against Escherichia coli TOP10 harboring pQep plasmid carrying qepA2 gene by disk diffusion method; type: functional
Escherichia coli [6] = experiment: Antimicrobial activity against Escherichia coli TOP10 by disk diffusion method; type: functional
Escherichia coli [7] = experiment: Antimicrobial activity against azide-resistant Escherichia coli J53 harboring pCTX-M plasmid carrying blaCTX-M-15 gene by disk diffusion method in presence of beta-lactamase inhibitor clavulanic acid; type: functional
Escherichia coli [8] = experiment: Antimicrobial activity against azide-resistant Escherichia coli J53 harboring pCTX-M carrying blaCTX-M-15 and pQep plasmid carrying qepA2 gene by disk diffusion method in presence of beta-lactamase inhibitor clavulanic acid; type: functional
Escherichia coli [9] = experiment: Antimicrobial activity against azide-resistant Escherichia coli J53 by disk diffusion method in presence of beta-lactamase inhibitor clavulanic acid; type: functional
Escherichia coli [10] = experiment: Antimicrobial activity against Escherichia coli TOP10 harboring pQep plasmid carrying qepA2 gene by disk diffusion method in presence of beta-lactamase inhibitor clavulanic acid; type: functional
Escherichia coli [11] = experiment: Antimicrobial activity against Escherichia coli TOP10 by disk diffusion method in presence of beta-lactamase inhibitor clavulanic acid; type: functional
Escherichia coli [12] = experiment: Antimicrobial activity against Escherichia coli BicA expressing blaTEM-1, blaCTX-M-15 and qepA2 gene by disk diffusion method in presence of beta-lactamase inhibitor clavulanic acid; type: functional

CO/N=C(\C(=O)N[C@@H]1C(=O)N2C(C(=O)[O-])=C(C[N+]3(C)CCCC3)CS[C@H]12)c1csc(N)n1
MIC (Escherichia coli [1]): > 32 µg/mL | MIC (Escherichia coli [2]): 16 µg/mL (≈ 33.3 µM) | MIC (Escherichia coli [3]): 16 µg/mL (≈ 33.3 µM) | MIC (Escherichia coli [4]): 0.01 µg/mL (≈ 0.0208 µM) | MIC (Escherichia coli [5]): 0.12 µg/mL (≈ 0.25 µM)

NCC[C@H](O)C(=O)N[C@@H]1C[C@H](N)[C@@H](O[C@H]2O[C@H](CN)[C@@H](O)[C@H](O)[C@H]2O)[C@H](O)[C@H]1O[C@H]1O[C@H](CO)[C@@H](O)[C@H](N)[C@H]1O [AMIKACIN]
MIC (Escherichia coli [1]): 2 µg/mL (≈ 3.42 µM) | MIC (Escherichia coli [2]): 1 µg/mL (≈ 1.71 µM) | MIC (Escherichia coli [3]): 1 µg/mL (≈ 1.71 µM) | MIC (Escherichia coli [4]): 1 µg/mL (≈ 1.71 µM) | MIC (Escherichia coli [5]): 1 µg/mL (≈ 1.71 µM) | MIC (Escherichia coli [6]): 1 µg/mL (≈ 1.71 µM)

CC1(C)S[C@@H]2[C@H](NC(=O)[C@H](N)c3ccc(O)cc3)C(=O)N2[C@H]1C(=O)O [AMOXICILLIN]
MIC (Escherichia coli [1]): > 256 µg/mL | MIC (Escherichia coli [2]): > 256 µg/mL | MIC (Escherichia coli [3]): > 256 µg/mL | MIC (Escherichia coli [4]): 4 µg/mL (≈ 10.9 µM) | MIC (Escherichia coli [5]): > 256 µg/mL | MIC (Escherichia coli [6]): 4 µg/mL (≈ 10.9 µM) | MIC (Escherichia coli [7]): 16 µg/mL | MIC (Escherichia coli [8]): 16 µg/mL | MIC (Escherichia coli [9]): 4 µg/mL | MIC (Escherichia coli [10]): 16 µg/mL | MIC (Escherichia coli [11]): 4 µg/mL | MIC (Escherichia coli [12]): 16 µg/mL

C[C@H]1[C@H](NC(=O)/C(=N\OC(C)(C)C(=O)O)c2csc(N)n2)C(=O)N1S(=O)(=O)O [AZTREONAM]
MIC (Escherichia coli [1]): > 32 µg/mL | MIC (Escherichia coli [2]): 16 µg/mL (≈ 36.7 µM) | MIC (Escherichia coli [3]): 16 µg/mL (≈ 36.7 µM)

CO/N=C(\C(=O)N[C@@H]1C(=O)N2C(C(=O)O)=C(COC(C)=O)CS[C@H]12)c1csc(N)n1 [CEFOTAXIME]
MIC (Escherichia coli [1]): > 32 µg/mL | MIC (Escherichia coli [2]): > 32 µg/mL | MIC (Escherichia coli [3]): > 32 µg/mL | MIC (Escherichia coli [4]): 0.06 µg/mL (≈ 0.132 µM) | MIC (Escherichia coli [5]): 0.06 µg/mL (≈ 0.132 µM) | MIC (Escherichia coli [6]): 0.06 µg/mL (≈ 0.132 µM)

CC(C)(O/N=C(\C(=O)N[C@@H]1C(=O)N2C(C(=O)[O-])=C(C[n+]3ccccc3)CS[C@H]12)c1csc(N)n1)C(=O)O [CEFTAZIDIME]
MIC (Escherichia coli [1]): > 32 µg/mL | MIC (Escherichia coli [2]): 16 µg/mL (≈ 29.3 µM) | MIC (Escherichia coli [3]): 16 µg/mL (≈ 29.3 µM) | MIC (Escherichia coli [4]): 0.12 µg/mL (≈ 0.22 µM) | MIC (Escherichia coli [5]): 0.12 µg/mL (≈ 0.22 µM) | MIC (Escherichia coli [6]): 0.06 µg/mL (≈ 0.11 µM)

CC(=O)OCC1=C(C(=O)O)N2C(=O)[C@@H](NC(=O)Cc3cccs3)[C@H]2SC1 [CEPHALOTHIN]
MIC (Escherichia coli [1]): > 256 µg/mL | MIC (Escherichia coli [2]): > 256 µg/mL | MIC (Escherichia coli [3]): > 256 µg/mL | MIC (Escherichia coli [4]): 8 µg/mL (≈ 20.2 µM) | MIC (Escherichia coli [5]): 8 µg/mL (≈ 20.2 µM) | MIC (Escherichia coli [6]): 4 µg/mL (≈ 10.1 µM)

O=C(N[C@H](CO)[C@H](O)c1ccc([N+](=O)[O-])cc1)C(Cl)Cl [CHLORAMPHENICOL]
MIC (Escherichia coli [1]): > 256 µg/mL | MIC (Escherichia coli [2]): 8 µg/mL (≈ 24.8 µM) | MIC (Escherichia coli [3]): > 256 µg/mL | MIC (Escherichia coli [4]): 8 µg/mL (≈ 24.8 µM) | MIC (Escherichia coli [5]): > 256 µg/mL | MIC (Escherichia coli [6]): 4 µg/mL (≈ 12.4 µM)

O=C(O)c1cn(C2CC2)c2cc(N3CCNCC3)c(F)cc2c1=O [CIPROFLOXACIN]
MIC (Escherichia coli [1]): > 32 µg/mL

CCN1CCN(c2cc3c(cc2F)c(=O)c(C(=O)O)cn3C2CC2)CC1 [ENROFLOXACIN]
MIC (Escherichia coli [1]): > 32 µg/mL | MIC (Escherichia coli [2]): 0.06 µg/mL (≈ 0.167 µM) | MIC (Escherichia coli [3]): 0.06 µg/mL (≈ 0.167 µM) | MIC (Escherichia coli [4]): 0.03 µg/mL (≈ 0.0835 µM) | MIC (Escherichia coli [5]): 0.008 µg/mL (≈ 0.0223 µM) | MIC (Escherichia coli [6]): 0.003 µg/mL (≈ 0.00835 µM)

COc1c(N2CCNC(C)C2)c(F)cc2c(=O)c(C(=O)O)cn(C3CC3)c12 (stereo not drawn) [GATIFLOXACIN]
MIC (Escherichia coli [1]): > 32 µg/mL | MIC (Escherichia coli [2]): 0.06 µg/mL (≈ 0.16 µM) | MIC (Escherichia coli [3]): 0.12 µg/mL (≈ 0.32 µM) | MIC (Escherichia coli [4]): 0.01 µg/mL (≈ 0.0266 µM) | MIC (Escherichia coli [5]): 0.01 µg/mL (≈ 0.0266 µM) | MIC (Escherichia coli [6]): 0.003 µg/mL (≈ 0.00799 µM)

C[C@@H](O)[C@H]1C(=O)N2C(C(=O)O)=C(SCCNC=N)C[C@H]12 [IMIPENEM ANHYDROUS]
MIC (Escherichia coli [1]): 0.5 µg/mL (≈ 1.67 µM) | MIC (Escherichia coli [2]): 0.25 µg/mL (≈ 0.835 µM) | MIC (Escherichia coli [3]): 0.25 µg/mL (≈ 0.835 µM) | MIC (Escherichia coli [4]): 0.06 µg/mL (≈ 0.2 µM)

C[C@H]1COc2c(N3CCN(C)CC3)c(F)cc3c(=O)c(C(=O)O)cn1c23.C[C@H]1COc2c(N3CCN(C)CC3)c(F)cc3c(=O)c(C(=O)O)cn1c23.O [LEVOFLOXACIN]
MIC (Escherichia coli [1]): > 32 µg/mL

Reference: ChEMBL document CHEMBL1275501, “Plasmid-mediated quinolone resistance pump QepA2 in an Escherichia coli isolate from France” (2008)
